Reference: PMC10791743, “Selective CK1α degraders exert antiproliferative activity against a broad range of human cancer cell lines” (Nature Communications, 2024)
“And” between values parts separate entries of the source, which are not always exact repeats. Equal entries are not always repeated.

Experiments:
MOLM-13 cells [1] = assay: MOLM-13 cell viability assay (CTG, 72 h); assay type: cell-based, human; set-up: key to Cell viability in MOLM-13 cells / cell viability, dose-response replicate values: % viability = 100 − % activity, normalized to controls
Procedure: The primary screen was performed in 384-well format using the CellTiter Glo (CTG) luminescent cell viability assay (Promega) as previously described. […] After overnight incubation at 37 °C in a humidified 5% CO2 incubator, cells were treated with compounds in dose–response format using a Pintool on a Biomek FX^P Laboratory Automation Workstation (Beckman Coulter). […] Luminescence signal was measured using an EnVision plate reader (PerkinElmer). […]
number per well and incubated overnight at 37 °C in a humidified 5 % CO2 incubator. Compounds were transferred to the assay plate from a dose-response plate using a Labcyte Echo 650 Acoustic Liquid Handler (Beckman Coulter , USA). […]
using Promega’s CellTiter-Glo reagent according to the manufacturer’s recommendation.
Luminescence was measured on the Envision plate reader (PerkinElmer, USA). Raw luminescence relative light unit (RLU) values for each compound at each concentration were normalized to obtain % activity using the following equation (1): 100 × [(mean(negctrl) – compound)/(mean (negctrl) – mean (posctrl))]. The % activity was converted to % viability using the following equation (2):
(100 – % activity), and then pooled from replicate experiments prior to fitting. Here, negctrl and posctrl refer to the negative (DMSO) and positive controls (staurosporine) on each plate. Dose-response curves were fit to the Hill equation using the GraphPad Prism (version 10). […]

MOLM-13 cells [2] = assay: TMT quantitative proteomics in MOLM-13; assay type: cell-based, human; details: for Proteins with significantly reduced abundance (TMT proteomics): 1 μM, 4 h
Procedure: We next carried out a tandem mass tag (TMT) quantitative proteomics experiment[30] to identify the neosubstrates whose degradation is induced by SJ7095. […] We confirmed the proteomics results by immunoblot analysis of CK1α in MOLM-13 cells following treatment with increasing concentrations of SJ7095 over 4 h (Fig. 2b). Under these conditions compound SJ7095 induced dose-dependent reduction of CK1α protein levels with DC50 value of 15 nM.
Each compound was tested in three wells of 2 million MOLM-13 cells each. […] Cells were then collected and washed with DPBS. Washed cells were centrifuged at 400×g for 5 min at 4 °C, the supernatant was removed, and pellets were snap frozen in liquid nitrogen and stored at −80 °C until sample submission.
The experiment was performed with a previously optimized protocol[30] with slight modification. Cell pellets were lysed in lysis buffer (50 mM HEPES, pH 8.5, 8 M urea, and 0.5% sodium deoxycholate). To profile the whole proteome, the protein lysates (approximately 100 µg of protein per sample) were proteolyzed with LysC (Wako) at an enzyme-to-substrate ratio of 1:100 (w/w) for 2 h at 21 °C. Following this the samples were diluted to a final 2 M Urea concentration, and further digested with trypsin (Promega) at an enzyme-to-substrate ratio of 1:50 (w/w) for at least 3 h. The peptides were reduced by adding 1 mM DTT for 30 min at 21 °C followed by alkylation with 10 mM iodoacetamide (IAA) for 30 min in the dark. The unreacted IAA was quenched with 30 mM DTT for 30 min. Finally, the digestion was stopped by adding trifluoroacetic acid (TFA) to 1%, desalted using C18 cartridges (Harvard Apparatus), and dried by speedvac. The purified peptides were resuspended in 50 mM HEPES (pH 8.5), and labeled with TMT reagents (Thermo Scientific). The differentially labeled samples were pooled equally, desalted, and dried for the subsequent peptide fractionation. Peptide analysis by two-dimensional liquid chromatography–tandem mass spectrometry (LC/LC–MS/MS) and MS data analysis are described in Supplementary Material. […]
Identification/quantification of proteins
The MS/MS raw data were processed by a tag-based hybrid search engine, JUMP7. The data was […]
concatenated with a reversed decoy database for evaluating False Discovery Rate (FDR). Searches were performed using a 15 ppm mass tolerance for precursor ions, fully tryptic restriction with two maximal missed cleavages, three maximal modification sites, and the assignment of b, and y ions.
TMT tags on lysine residues and N-termini (+304.2071453 Da for TMT16 and TMT18) were used for static modifications. In addition, oxidation of Methionine (Met) was considered as a dynamic modification (+15.99492 Da). Putative peptide spectral matches (PSMs) were filtered by mass accuracy and then grouped by precursor ion charge state and further filtered by JUMP-based matching scores, Jscore and ΔJn, to achieve the protein FDR below 1%. For quantification, TMT intensities of reporter ions were extracted, filtered, normalized, and summarized into peptide and […]
Differential expression analysis of proteins
Identification of differentially expressed proteins were conducted by the limma R package8. To control multiple testing, the Benjamini-Hochberg method was employed. Proteins with an adjusted […]
p value of < 0.05 and log2 fold change of > 2-fold of standard deviation (SD) were defined as differentially expressed. […]

Question: With `O=C1CCC(N2Cc3cc(Nc4noc5ccccc45)ccc3C2=O)C(=O)N1` (stereo not drawn) [SJ3149] as the molecule, how does the “Effect on MOLM-13 cell viability (cytotoxicity)” value (MOLM-13 cells [1]; CTG 72 h) read?
Answer: more robust effect on the viability of MOLM-13 cells

Question: And the IC50 (MOLM-13 cells [1]; Homo sapiens, MOLM-13, CTG 72 h, read-out: IC50, MOLM-13 cell growth/viability)?
Answer: 13 nM

Question: What about the “Cell viability in MOLM-13 cells” value (MOLM-13 cells [1]; SJ3149 series, Conc 0.000508) of the same molecule?
Answer: 101.693 and 103.275 and 101.343

Question: And the “Cell viability in MOLM-13 cells” value (MOLM-13 cells [1]; SJ3149 series, Conc 0.00152416)?
Answer: 101.046 and 101.638 and 102.894

Question: What about the “Cell viability in MOLM-13 cells” value (MOLM-13 cells [1]; SJ3149 series, Conc 0.00457247) of the same molecule?
Answer: 93.8551 and 92.4498 and 91.2385

Question: And the “Cell viability in MOLM-13 cells” value (MOLM-13 cells [1]; SJ3149 series, Conc 0.0137174)?
Answer: 62.1406 and 65.1592 and 63.0989

Question: What about the “Cell viability in MOLM-13 cells” value (MOLM-13 cells [1]; SJ3149 series, Conc 0.0411523) of the same molecule?
Answer: 25.3582 and 28.4617 and 24.9569

Question: What about the “Cell viability in MOLM-13 cells” value (MOLM-13 cells [1]; SJ3149 series, Conc 0.123457) of the same molecule?
Answer: 6.148 and 8.382 and 8.141

Question: What about the “Cell viability in MOLM-13 cells” value (MOLM-13 cells [1]; SJ3149 series, Conc 0.37037) of the same molecule?
Answer: 3.25 and 4.028 and 3.791

Question: And the “Cell viability in MOLM-13 cells” value (MOLM-13 cells [1]; SJ3149 series, Conc 1.11111)?
Answer: 2.026 and 2.1314 and 2.9156

Question: What about the “Cell viability in MOLM-13 cells” value (MOLM-13 cells [1]; SJ3149 series, Conc 3.33333) of the same molecule?
Answer: 1.946 and 1.78 and 2.069

Question: What about the “Cell viability in MOLM-13 cells” value (MOLM-13 cells [1]; SJ3149 series, Conc 10) of the same molecule?
Answer: 0.7978 and 0.8668 and 1.097

Question: And the “Proteins with significantly reduced abundance (TMT proteomics)” value (MOLM-13 cells [2])?
Answer: significantly reduced the abundance of only CK1α out of >9000 proteins

Question: What about the “Log2FC vs. DMSO, CSNK1A1” value (MOLM-13 cells [2]; 1uM, 4h) of the same molecule?
Answer: -0.851

Question: What about the “Log2FC vs. DMSO, CTNNB1” value (MOLM-13 cells [2]; 1uM, 4h) of the same molecule?
Answer: 1.473

Question: How did the “Cell viability in MOLM-13 cells” value (MOLM-13 cells [1]; SJ0040 series, Conc 0.000596098) turn out when `Cc1cccc(C(=O)Nc2ccc3c(c2)CN(C2CCC(=O)NC2=O)C3=O)c1` (stereo not drawn) [SJ0040] was run?
Answer: 72.251 and 62.2023 and 81.3879

Question: What about the “Cell viability in MOLM-13 cells” value (MOLM-13 cells [1]; SJ0040 series, Conc 0.0017883) of the same molecule?
Answer: 82.0109 and 75.8813 and 72.6272

Question: And the “Cell viability in MOLM-13 cells” value (MOLM-13 cells [1]; SJ0040 series, Conc 0.00536488)?
Answer: 61.7374 and 60.0676 and 62.6116

Question: What about the “Cell viability in MOLM-13 cells” value (MOLM-13 cells [1]; SJ0040 series, Conc 0.0160947) of the same molecule?
Answer: 47.3097 and 40.7507 and 48.8062

Question: And the “Cell viability in MOLM-13 cells” value (MOLM-13 cells [1]; SJ0040 series, Conc 0.048284)?
Answer: 27.7074 and 26.3493 and 30.1451

Question: And the “Cell viability in MOLM-13 cells” value (MOLM-13 cells [1]; SJ0040 series, Conc 0.144852)?
Answer: 14.8484 and 15.2529 and 14.8047

Question: And the “Cell viability in MOLM-13 cells” value (MOLM-13 cells [1]; SJ0040 series, Conc 0.434556)?
Answer: 9.851 and 9.013 and 9.549

Question: What about the “Cell viability in MOLM-13 cells” value (MOLM-13 cells [1]; SJ0040 series, Conc 1.30367) of the same molecule?
Answer: 6.737 and 6.253 and 6.807

Question: And the “Cell viability in MOLM-13 cells” value (MOLM-13 cells [1]; SJ0040 series, Conc 3.911)?
Answer: 4.756 and 5.128 and 7.933

Question: And the “Proteins with significantly reduced abundance (TMT proteomics)” value (MOLM-13 cells [2])?
Answer: significantly reduced the abundance of only CK1α out of >9000 proteins

Question: What about the “Log2FC vs. DMSO, BHLHE40” value (MOLM-13 cells [2]; 1uM, 4h) of the same molecule?
Answer: 0.522

Question: And the “Log2FC vs. DMSO, CSNK1A1” value (MOLM-13 cells [2]; 1uM, 4h)?
Answer: -1.896
